Values joined by “and” are separate entries in the source; they are usually repeats but may differ in a detail not shown here. Equal entries are not always repeated. Inconclusive results and toxic doses are left out. Starred links: 1 amine or outer side, 2 acyl side, 3 side chain; linkers in the order of their positions; H or OH if unused. Positions of bridges follow the written chain, without caps; N, C: chain ends. Non-standard residues stand in square brackets, D forms with d. Residues, ends and D or L forms follow the SMILES beside them. ξ: configuration not given here. *: point of attachment. ξOrn(4,5-diOH) = O=C(C(CC(O)C(O)N[*:3])N[*:1])[*:2]; ξhTyr(βξ-OH,γξ-OH) = NC(C(=O)O)C(O)C(O)c1ccc(O)cc1; ξPro(3ξ-OH,4ξ-Me) = CC1CNC(C(=O)O)C1O; X4 = CCCCC/C=C/C/C=C\CCCCCCCC(=O)*; Hyp = O=C(O)[CH]1C[CH](O)CN1
System: BDF1 mice, P388 leukemia ip, median survival T/C
Assay: NCI In Vivo Anticancer Drug Screen. Data for tumor model P388 Leukemia (intraperitoneal) in B6D2F1 (BDF1) mice
Conditions: endpoint: median survival time, higher = longer survival
Procedure, shortened: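 Read-out is survival of treated animals expressed relative to the vehicle group, as a T/C ratio.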

[1] = dose: 50.0 mg/kg/injection, schedule: Q01DX009 (ip), vehicle: saline with Tween-80
[2] = dose: 100.0 mg/kg/injection, schedule: Q01DX009 (ip), vehicle: saline with Tween-80
[3] = dose: 200.0 mg/kg/injection, schedule: Q01DX009 (ip), vehicle: saline with Tween-80
[4] = dose: 100.0 mg/kg/injection, schedule: Q04DX003 (ip), vehicle: saline with Tween-80
[5] = dose: 200.0 mg/kg/injection, schedule: Q04DX003 (ip), vehicle: saline with Tween-80
[6] = dose: 400.0 mg/kg/injection, schedule: Q04DX003 (ip), vehicle: saline with Tween-80
[7] = dose: 50.0 mg/kg/injection, schedule: Q01DX009 (ip), vehicle: saline
[8] = dose: 100.0 mg/kg/injection, schedule: Q01DX009 (ip), vehicle: saline
[9] = dose: 100.0 mg/kg/injection, schedule: Q04DX003 (ip), vehicle: alcohol
[10] = dose: 100.0 mg/kg/injection, schedule: Q01DX001 (ip), vehicle: saline
[11] = dose: 200.0 mg/kg/injection, schedule: Q01DX001 (ip), vehicle: saline
[12] = dose: 400.0 mg/kg/injection, schedule: Q01DX001 (ip), vehicle: saline
[13] = dose: 25.0 mg/kg/injection, schedule: Q01DX009 (ip), vehicle: Klucel (hydroxypropylcellulose) (HPC)
[14] = dose: 50.0 mg/kg/injection, schedule: Q01DX009 (ip), vehicle: Klucel (hydroxypropylcellulose) (HPC)
[15] = dose: 100.0 mg/kg/injection, schedule: Q04DX003 (ip), vehicle: saline
[16] = dose: 200.0 mg/kg/injection, schedule: Q01DX009 (ip), vehicle: saline
[17] = dose: 200.0 mg/kg/injection, schedule: Q04DX003 (ip), vehicle: saline

O=C1c2c(O)ccc([N+](=O)[O-])c2C(=O)c2c([N+](=O)[O-])ccc(O)c21
T/C (dose: 100.0 mg/kg/injection, schedule: Q04DX003 (ip), vehicle: Klucel (hydroxypropylcellulose) (HPC)): 118 % of control | T/C (dose: 200.0 mg/kg/injection, schedule: Q04DX003 (ip), vehicle: Klucel (hydroxypropylcellulose) (HPC)): 122 % of control | T/C (dose: 400.0 mg/kg/injection, schedule: Q04DX003 (ip), vehicle: Klucel (hydroxypropylcellulose) (HPC)): 113 % of control

N#CC1=C(N)CCC2(C1)c1ccccc1-c1ccccc12
T/C [1]: 103 % of control | T/C [2]: 88 % of control | T/C [3]: 96 % of control

CCCCC/C=C/C/C=C\CCCCCCCC(=O)NC1CC(O)C(O)NC(=O)C2C(O)C(C)CN2C(=O)C(C(C)O)NC(=O)C(C(O)C(O)c2ccc(O)cc2)NC(=O)C2CC(O)CN2C(=O)C(C(C)O)NC1=O (stereo not drawn) (X4-[ξOrn(4,5-diOH)]T[Hyp][ξhTyr(βξ-OH,γξ-OH)]T[ξPro(3ξ-OH,4ξ-Me)]; lactam 1-C; configuration not given here)
T/C (dose: 0.5 mg/kg/injection, schedule: Q01DX009 (ip), vehicle: lactate): 100 % of control | T/C (dose: 1.0 mg/kg/injection, schedule: Q01DX009 (ip), vehicle: lactate): 102 % of control | T/C (dose: 2.0 mg/kg/injection, schedule: Q01DX009 (ip), vehicle: lactate): 102 % of control | T/C (dose: 4.0 mg/kg/injection, schedule: Q01DX009 (ip), vehicle: lactate): 100 % of control

CC1N/C(=C/c2ccccc2)C(=O)O1 (stereo not given)
T/C [1]: 118 % of control | T/C [2]: 121 % of control

COc1ccc2c(c1)CC[C@@H]1[C@@H]2CC[C@]2(C)/C(=N\O)CC[C@@H]12
T/C [2]: 104 % of control | T/C [3]: 109 % of control | T/C (dose: 400.0 mg/kg/injection, schedule: Q01DX009 (ip), vehicle: saline with Tween-80): 90 % of control

CC(=O)OCC1OC(N)C(OC(C)=O)C(OC(C)=O)C1OC(C)=O (stereo not given)
T/C [1]: 97 % of control | T/C [2]: 92 % of control | T/C [3]: 96 % of control

CC(=O)Cc1ccc(C(=O)C(C)Cc2ccc(C(C)=O)cc2)cc1 (stereo not given)
T/C [4]: 100 % of control | T/C [5]: 90 % of control | T/C [6]: 90 % of control

CCC(/C=C/C(C)C1CCC2C3CC=C4CC(O)CCC4(C)C3CCC12C)C(C)C (stereo not given) (tested in a mixture with another compound)
T/C (dose: 25.0 mg/kg/injection, schedule: Q01DX009 (ip), vehicle: saline): 104 % of control | T/C (dose: 25.0 mg/kg/injection, schedule: Q04DX003 (ip), vehicle: alcohol): 109 % of control | T/C [7]: 95 % of control | T/C (dose: 50.0 mg/kg/injection, schedule: Q04DX003 (ip), vehicle: alcohol): 95 % of control | T/C [8]: 100 % of control | T/C [9]: 100 % of control

C#CCN(C)CCO
T/C [10]: 105 % of control | T/C [9]: 90 % of control | T/C [11]: 95 % of control | T/C (dose: 200.0 mg/kg/injection, schedule: Q04DX003 (ip), vehicle: alcohol): 100 % of control | T/C [12]: 100 % of control | T/C (dose: 400.0 mg/kg/injection, schedule: Q04DX003 (ip), vehicle: alcohol): 100 % of control

NC(N)=N/N=C/c1ccc(Cl)c(Cl)c1
T/C (dose: 6.25 mg/kg/injection, schedule: Q01DX009 (ip), vehicle: Klucel (hydroxypropylcellulose) (HPC)): 102 % of control | T/C (dose: 12.5 mg/kg/injection, schedule: Q01DX009 (ip), vehicle: Klucel (hydroxypropylcellulose) (HPC)): 100 % of control | T/C [13]: 94 % of control | T/C [14]: 100 % of control

COc1cc(C(=O)NCC2(C)OC3(OC(=O)C2O)C(=O)N/C(=C(\C=O)C(C)=O)OC3C(O)C2CN2C(C)=O)c2cccc(C)c2c1 (stereo not given)
T/C (dose: 0.05 mg/kg/injection, schedule: Q01DX010 (ip), vehicle: alkali diluted with saline): 245 % of control | T/C (dose: 0.1 mg/kg/injection, schedule: Q01DX010 (ip), vehicle: alkali diluted with saline): 300 % of control | T/C (dose: 12.5 micrograms/kg/injection, schedule: Q01DX010 (ip), vehicle: other): 180 % of control | T/C (dose: 25.0 micrograms/kg/injection, schedule: Q01DX010 (ip), vehicle: other): 155 % of control | T/C (dose: 50.0 micrograms/kg/injection, schedule: Q01DX010 (ip), vehicle: other): 195 % of control

C=CCNC(=S)N/N=C\c1cc(OC)c(OC)c(OC)c1
T/C [1]: 95 % of control | T/C [2]: 100 % of control | T/C [3]: 90 % of control

Cc1nc(-c2ccc(N=Cc3ccc(N(CCOS(C)(=O)=O)CCOS(C)(=O)=O)cc3C)cc2)cs1
T/C (dose: 11.0 mg/kg/injection, schedule: Q01DX009 (ip), vehicle: Klucel (hydroxypropylcellulose) (HPC)): 247 % of control | T/C (dose: 16.5 mg/kg/injection, schedule: Q01DX009 (ip), vehicle: Klucel (hydroxypropylcellulose) (HPC)): 277 % of control and 176 % of control | T/C (dose: 24.75 mg/kg/injection, schedule: Q01DX009 (ip), vehicle: Klucel (hydroxypropylcellulose) (HPC)): 108 % of control | T/C [13]: 111 % of control

NC(=O)NO.NC(=O)NO.[Cl][Ni][Cl]
T/C (dose: 3.12 mg/kg/injection, schedule: Q01DX009 (ip), vehicle: saline): 92 % of control

CSCCC(NC(C)=O)C(=O)O (stereo not given)
T/C [8]: 96 % of control | T/C [15]: 87 % of control | T/C [16]: 88 % of control | T/C [17]: 87 % of control | T/C (dose: 400.0 mg/kg/injection, schedule: Q04DX003 (ip), vehicle: saline): 91 % of control

O=c1c(N=Nc2ccccc2)c[nH]n1-c1ccccc1
T/C (dose: 62.5 mg/kg/injection, schedule: Q01DX009 (ip), vehicle: saline with Tween-80): 90 % of control | T/C (dose: 250.0 mg/kg/injection, schedule: Q01DX009 (ip), vehicle: saline with Tween-80): 88 % of control

COC(=O)C(c1ccccc1)C(CC(=O)c1ccccc1)c1ccccc1 (stereo not given)
T/C [14]: 86 % of control | T/C (dose: 100.0 mg/kg/injection, schedule: Q01DX009 (ip), vehicle: Klucel (hydroxypropylcellulose) (HPC)): 89 % of control and 99 % of control | T/C (dose: 200.0 mg/kg/injection, schedule: Q01DX009 (ip), vehicle: Klucel (hydroxypropylcellulose) (HPC)): 92 % of control and 101 % of control | T/C (dose: 400.0 mg/kg/injection, schedule: Q01DX009 (ip), vehicle: Klucel (hydroxypropylcellulose) (HPC)): 97 % of control

CCN1c2ccccc2CC(C#N)(CCN(C)C)c2ccccc21 (stereo not given)
T/C [2]: 100 % of control

CCCCCCCCCCCCSCCSCCSCCCCCCCCCCCC
T/C (dose: 100.0 mg/kg/injection, schedule: Q01DX001 (ip), vehicle: saline with Tween-80): 95 % of control | T/C (dose: 200.0 mg/kg/injection, schedule: Q01DX001 (ip), vehicle: saline with Tween-80): 95 % of control | T/C (dose: 400.0 mg/kg/injection, schedule: Q01DX001 (ip), vehicle: saline with Tween-80): 90 % of control

CNC(=S)N(C)C
T/C (dose: 50.0 mg/kg/injection, schedule: Q01DX001 (ip), vehicle: saline): 95 % of control | T/C [10]: 103 % of control and 104 % of control | T/C [11]: 95 % of control and 104 % of control | T/C [12]: 91 % of control

C1CCC(=[N+]2CCCC2)CC1
T/C [7]: 100 % of control | T/C [8]: 100 % of control | T/C [15]: 109 % of control | T/C [16]: 112 % of control | T/C [17]: 100 % of control

CN(C)C(=S)SCC(=O)NC(CO)C(=O)O (stereo not given)
T/C [1]: 98 % of control | T/C [2]: 98 % of control | T/C [3]: 89 % of control

O=C1NN=C(c2ccc(Cl)cc2)CS1
T/C [1]: 103 % of control | T/C [2]: 103 % of control

COC1/C=C\OC2(C)Oc3c(C)c(O)c4c(c3C2=O)C(=O)C=C(NC(=O)C(C)=C/C=C\C(C)C(O)C(C)C2OC(C)(C)OC(C1C)C2C)C4=O (stereo not given)
T/C [1]: 103 % of control | T/C [2]: 100 % of control | T/C [3]: 93 % of control

CCCCCCCNC(=O)Nc1cc([N+](=O)[O-])ccc1C
T/C [4]: 100 % of control | T/C [5]: 100 % of control | T/C [6]: 104 % of control

From PubChem BioAssay AID328 (DTP/NCI, 2004)
